Legend:
[1] = molecular target: PI3Kα (Homo sapiens, UniProt P42336); experiment: PI3K kinase activity inhibition assay; assay type: biochemical; conditions: Kinase-Glo Plus ATP detection, read-out: IC50 against PI3K
Description: PI3Kα kinase activity was determined in the presence and absence of a test compound. The test compound was dissolved in DMSO and diluted serially with an ATP solution (30 μm ATP, 50 mM HEPES, pH 7.4, 50 mM NaCl, 0.05% CHAPS, 10 mM MgCl2, and 5 mM dithiothreitol [DTT]). First, 7 μl each of the serially diluted test compound solutions was added to each well of a black 384-well plate. Subsequently, 7 μl of a phosphatidylinositol 4,5-bisphosphate (PIP2) solution (45 μm PIP2, 50 mM HEPES, pH 7.4, 50 mM NaCl, 0.05% CHAPS, 10 mM MgCl2, and 5 mM DTT) was added to each well of the 384-well plate. Finally, 7 μl of a solution containing PI3Kα (50 nM PI3Kα, 50 mM HEPES, pH 7.4, 50 mM NaCl, 0.05% CHAPS, 10 mM MgCl2, and 5 mM DTT) was added to each well of the 384-well plate to initiate a reaction. The mixture was reacted at room temperature for 2 hours and then 21 μl of the Kinase-Glo Plusreagent (Promega) was, added to each well of the 384-well plate to terminate the reaction. After the termination of the reaction, the solution was left standing for 15 minutes and then luminescence was measured with ARVO (PerkinElmer Co., Ltd.) to detect ATP remaining in the reaction solution.
The amount of ATP consumed in the reaction was obtained for each well and used as an indicator of PI3Kαkinase activity. The PI3Kα kinase activity in wells not containing the test compound was calculated by the following formula (1). Furthermore, the PI3Kα kinase activity in wells containing the test compound was calculated by the following formula (2). The PI3Kα inhibitory activity (%) of the test compound was calculated by the following formula (3). PI3Kα kinase activity in wells not containing the test compound=B−C (1) PI3Kα kinase activity in wells containing the test compound=B−P (2) PI3Kα inhibitory activity (%) of test compound=100−100×[(B−P)/(B−C)] (3) B: Measured value in wells not containing PI3Kα or the test compound C: Measured value in wells containing PI3Kα and not containing the test compound P: Measured value in wells containing PI3Kα and the test compound
Furthermore, an optimal curve was calculated with Graph Pad Prism 4 using concentrations of the serially diluted test compound solutions and PI3Kα inhibitory activity (%) at each concentration to obtain the concentration showing 50% inhibition as the IC50 value of PI3Kα inhibitory activity.

[2] = molecular target: T1, human mTOR (His-tagged mTOR (1362C)) (Homo sapiens, UniProt P42345); experiment: mTOR kinase activity inhibition assay; assay type: biochemical; conditions: HTRF, read-out: IC50 against mTOR
T1 construct: the 1362 to 2549 amino acid portion on the C terminus side of human mTOR; His tag (N); made in house
T1 sequence (P42345 1362-2549): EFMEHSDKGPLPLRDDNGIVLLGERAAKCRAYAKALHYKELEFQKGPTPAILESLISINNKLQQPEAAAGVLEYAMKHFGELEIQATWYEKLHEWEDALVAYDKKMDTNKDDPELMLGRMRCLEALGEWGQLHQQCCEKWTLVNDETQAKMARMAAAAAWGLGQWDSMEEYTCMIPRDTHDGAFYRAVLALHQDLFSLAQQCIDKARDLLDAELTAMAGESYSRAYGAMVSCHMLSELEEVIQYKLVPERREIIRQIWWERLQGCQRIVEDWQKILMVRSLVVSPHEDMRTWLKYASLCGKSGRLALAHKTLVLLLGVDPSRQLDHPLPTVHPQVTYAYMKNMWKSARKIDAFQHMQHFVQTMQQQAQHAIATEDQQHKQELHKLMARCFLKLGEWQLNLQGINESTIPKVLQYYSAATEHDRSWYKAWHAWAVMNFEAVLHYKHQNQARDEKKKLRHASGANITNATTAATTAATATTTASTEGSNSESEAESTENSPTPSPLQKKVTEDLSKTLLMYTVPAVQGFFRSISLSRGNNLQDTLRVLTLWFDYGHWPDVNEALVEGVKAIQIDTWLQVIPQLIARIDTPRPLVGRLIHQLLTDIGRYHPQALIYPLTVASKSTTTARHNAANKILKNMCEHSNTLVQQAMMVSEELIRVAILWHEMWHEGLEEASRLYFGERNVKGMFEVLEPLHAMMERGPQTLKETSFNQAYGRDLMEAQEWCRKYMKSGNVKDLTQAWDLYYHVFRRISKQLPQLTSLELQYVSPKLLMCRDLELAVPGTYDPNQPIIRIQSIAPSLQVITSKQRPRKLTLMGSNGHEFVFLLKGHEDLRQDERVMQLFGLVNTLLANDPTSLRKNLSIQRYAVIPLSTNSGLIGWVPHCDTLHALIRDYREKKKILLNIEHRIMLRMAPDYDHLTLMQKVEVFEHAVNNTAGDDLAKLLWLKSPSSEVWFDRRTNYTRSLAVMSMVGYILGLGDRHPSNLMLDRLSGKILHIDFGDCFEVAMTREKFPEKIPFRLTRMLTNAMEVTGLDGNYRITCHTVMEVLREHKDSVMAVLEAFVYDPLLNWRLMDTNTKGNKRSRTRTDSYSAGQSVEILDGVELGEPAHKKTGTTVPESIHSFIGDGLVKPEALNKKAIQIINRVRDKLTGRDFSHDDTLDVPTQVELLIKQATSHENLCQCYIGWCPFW
Description: The mTOR kinase activity was determined in the presence and absence of a test compound. A substrate peptide is phosphorylated by mTOR kinase activity. A complex of streptavidin-XL665 and anti-phosphorylated S6K (Thr389) antibody-anti-mouse IgG-cryptate binds to this phosphorylated peptide. At this time, irradiation of excitation light induces transfer of fluorescence resonance energy from the excited cryptate to XL665, emitting fluorescence at 665 nm. Utilizing this principle, mTOR kinase activity was detected. When the mTOR inhibitor is present, phosphorylation of a substrate peptide is inhibited, and the biding of the above-mentioned complex to the substrate peptide is inhibited.
A His tag was introduced into the N terminus end of the 1362 to 2549 amino acid portion on the C terminus side of human mTOR, and a cell line was prepared, so that His-tagged mTOR should be constantly expressed in a HEK293 cell. A cell lysate was prepared from this HEK293 cell which constantly expressed His-tagged mTOR (1362C), and a crude product of His-tagged mTOR (1362C) was obtained by a usual method utilizing His tag.
Subsequently, an mTOR enzyme solution was prepared which contained the above-mentioned His-tagged mTOR (1362C) enzyme and 8 μg/ml biotinylated peptide (Biotin-Ahx-[…]-amide [Sigma]), as well as 50 mM HEPES (pH 7.5), 20 mM MnCl2, 1 mg/ml BSA, a suitable amount of protease inhibitor cocktail (Complete EDTA free, Roche Ltd.), 100 ng/ml calyculin A, and 4 μg/ml cantharidin as other components.
The test compound was dissolved in dimethyl sulfoxide (DMSO) and serially diluted with 20 μm ATP solution (50 mM HEPES (pH 7.5), 20 μM ATP) to obtain concentrations required for the assay. 5 μl of this compound solution was added to each well of a 384-well small volume white plate manufactured by Greiner Bio-One Co., Ltd.
5 μl of the mTOR enzyme solution was added to the above-mentioned well containing the test compound and the resulting mixture was left standing for 3 hours room temperature to proceed an enzymatic reaction.
The same procedure was performed using a solution obtained by dissolving DMSO in 20 μM ATP solution as a positive control and a solution obtained by dissolving DMSO in 50 mM HEPES buffer (pH 7.5) as a negative control.
After the enzymatic reaction, 5 μl each of an europium solution (a solution obtained by dissolving anti-mouse IgG-cryptate [SCETI Medical Labo K.K.] and anti-phosphorylation S6K [Thr389] antibody [Cell Signaling Technology Inc.] in 50 mM HEPES [pH 7.5], 100 mM EDTA, and 1.5 mg/ml BSA) and an XL665 solution (a solution obtained by dissolving Streptavidin-XL 665 [SCETI Medical Labo K.K.] in 50 mM HEPES [pH 7.5], 100 mM EDTA, 0.8 M KF, and 1.5 mg/ml BSA) were added in this order and mixed and the resulting mixture was left standing overnight at 4° C. On the following day, the mixture was returned to room temperature and then irradiated with 337-nm excitation light and fluorescence at 620 and 665 nm was measured with RUBYstar (BMG LABTECH JAPAN Ltd.).
mTOR inhibitory activity (%) was calculated using the ratio calculated from the measured values as an indicator of enzyme activity. Here, the ratio was calculated by the following formula (1). Ratio=10,000×fluorescence at 665 nm/fluorescence at 620 nm (1)
mTOR enzyme inhibitory activity (%) was calculated by the following formula (2). mTOR enzyme inhibitory activity (%)=100×[(P−S)/(P−N)] (2) P: Ratio in positive control well N: Ratio in negative control well S: Ratio in well containing the test compound
Furthermore, an optimal curve was created using the concentrations of the serially diluted test compound solutions and mTOR enzyme inhibitory activity (%) at each concentration to obtain the concentration showing 50% inhibition as the IC50 value of mTOR enzyme inhibitory activity.

[3] = tested on: human endometrial cancer cell strain AN3CA; experiment: Cell growth inhibition test (MTT), AN3CA; assay type: cell-based; conditions: AN3-CA, 72 h, 3 days culture, read-out: concentration exhibiting anti-cell effect (GI50)
Description: (§1) After a cultured cancer cell strain was treated with a test compound for a predetermined period, a cell growth inhibition test was performed by measuring the living cell count by the 3-(4,5-dimethylthiazol-2-yl)-2,5-diphenyltetrazoliumbromide (MTT) method.
(§2) Human endometrial cancer cell strain AN3CA, human ovary cancer cell strain IGROV1, and human colon cancer cell strain HT29 were seeded in a 96-well plate at 5000, 1000, and 5000 cells, respectively, per well. On the following day of seeding, a test compound having a predetermined concentration was added and the culture was continued at 37° C. in 5% CO2 for 3 days. On the final day of culture, an MTT reaction solution was added and the resulting mixture was reacted for 4 hours to form formazan by dehydrogenases contained in living cells. Subsequently, the culture broth was removed, DMSO was added to solubilize formazan, and the amount of produced formazan was determined by measuring absorbance at 540 nm using a microplate reader.
(§3) Since correlations of the amount of produced formazan and the living cell count had been confirmed, the cell growth rate was calculated by the following formula. Cell growth rate (T/C %) after addition of test compound=100×[(B−C)/(A−C)] A: Absorbance of well not containing test compound (final culture day) B: Absorbance of well containing test compound (final culture day) C: Absorbance of well immediately before addition of test compound (following day of cell seeding)
(§4) Furthermore, the cell growth rate at each concentration of serially diluted test compound solutions was obtained, and the concentration of the test compound resulting in a 50% growth rate was obtained as the GI50 value from two concentrations including 50% therebetween and the growth rates were selected.

[4] = tested on: human ovary cancer cell strain IGROV1; experiment: Cell growth inhibition test (MTT), IGROV1; assay type: cell-based; conditions: IGROV-1, 72 h, IGROV1, 3 days culture, read-out: concentration exhibiting anti-cell effect (GI50)
Description: as §1, §2, §3, §4

[5] = tested on: human colon cancer cell strain HT29; experiment: Cell growth inhibition test (MTT), HT29; assay type: cell-based; conditions: HT-29, 72 h, HT29, 3 days culture, read-out: concentration exhibiting anti-cell effect (GI50)
Description: as §1, §2, §3, §4

Sequence of PI3Kα (P42336 whole entry, species assumed): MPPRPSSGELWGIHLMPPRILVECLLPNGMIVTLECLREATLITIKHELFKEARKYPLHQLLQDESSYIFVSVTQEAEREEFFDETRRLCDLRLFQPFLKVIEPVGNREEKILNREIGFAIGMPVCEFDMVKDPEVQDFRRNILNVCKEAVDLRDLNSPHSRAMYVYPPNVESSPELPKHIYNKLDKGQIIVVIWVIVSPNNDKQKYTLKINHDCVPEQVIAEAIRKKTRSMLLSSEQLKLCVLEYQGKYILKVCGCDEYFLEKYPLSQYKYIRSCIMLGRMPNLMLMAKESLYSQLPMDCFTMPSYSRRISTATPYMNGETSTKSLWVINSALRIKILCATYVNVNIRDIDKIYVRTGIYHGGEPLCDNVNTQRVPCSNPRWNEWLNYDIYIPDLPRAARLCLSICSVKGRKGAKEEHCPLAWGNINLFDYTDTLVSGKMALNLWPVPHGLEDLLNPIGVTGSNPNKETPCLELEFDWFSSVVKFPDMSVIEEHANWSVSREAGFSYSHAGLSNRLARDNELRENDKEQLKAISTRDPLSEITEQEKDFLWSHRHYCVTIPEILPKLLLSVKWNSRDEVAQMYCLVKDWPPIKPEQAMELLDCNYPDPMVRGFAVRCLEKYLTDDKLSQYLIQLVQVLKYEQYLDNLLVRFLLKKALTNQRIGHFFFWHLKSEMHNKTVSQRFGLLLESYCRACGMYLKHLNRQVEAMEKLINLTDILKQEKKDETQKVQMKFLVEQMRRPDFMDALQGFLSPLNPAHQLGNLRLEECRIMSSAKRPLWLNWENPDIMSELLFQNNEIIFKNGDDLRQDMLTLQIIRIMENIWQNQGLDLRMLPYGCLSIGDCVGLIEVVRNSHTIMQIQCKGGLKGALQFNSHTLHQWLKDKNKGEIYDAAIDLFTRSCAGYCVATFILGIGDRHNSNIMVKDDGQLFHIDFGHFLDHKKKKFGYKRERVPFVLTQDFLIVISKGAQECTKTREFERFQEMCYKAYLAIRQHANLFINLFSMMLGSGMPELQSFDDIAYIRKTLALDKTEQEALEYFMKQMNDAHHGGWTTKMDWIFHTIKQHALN
Sequence of PI3Kα (P27986 whole entry partner, species assumed): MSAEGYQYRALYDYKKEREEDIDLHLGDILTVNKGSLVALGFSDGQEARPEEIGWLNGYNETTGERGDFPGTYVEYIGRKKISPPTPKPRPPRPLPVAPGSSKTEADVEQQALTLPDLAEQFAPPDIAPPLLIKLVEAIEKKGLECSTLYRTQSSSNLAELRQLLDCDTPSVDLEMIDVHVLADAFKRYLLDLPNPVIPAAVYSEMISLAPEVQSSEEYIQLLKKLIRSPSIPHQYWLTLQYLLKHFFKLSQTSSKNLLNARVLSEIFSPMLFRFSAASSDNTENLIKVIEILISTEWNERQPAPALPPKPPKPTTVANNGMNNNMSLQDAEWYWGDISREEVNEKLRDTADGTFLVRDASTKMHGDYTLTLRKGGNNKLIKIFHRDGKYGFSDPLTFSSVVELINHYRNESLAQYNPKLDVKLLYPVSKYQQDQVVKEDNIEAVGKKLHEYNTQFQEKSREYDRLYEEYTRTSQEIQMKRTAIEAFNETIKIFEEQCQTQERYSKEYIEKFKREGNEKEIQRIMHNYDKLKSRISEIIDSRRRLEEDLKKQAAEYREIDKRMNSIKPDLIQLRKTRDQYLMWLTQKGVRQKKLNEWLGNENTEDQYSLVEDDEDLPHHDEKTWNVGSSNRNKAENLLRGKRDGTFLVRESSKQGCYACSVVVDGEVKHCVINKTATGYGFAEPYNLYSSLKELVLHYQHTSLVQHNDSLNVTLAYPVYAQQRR

SMILES | IC50 [1] [nM] | IC50 [2] [nM] | GI50 [3] [nM] | GI50 [4] [nM] | GI50 [5] [nM]
Nc1ncc(-c2nc(N3CCOCC3)c3nc(NCCO)n(CC4CC4)c3n2)cn1 [Example 30, 2-{[2-(2-Aminopyrimidin-5-yl)-9-(cyclopropylmethyl)-6-morpholin-4-yl-9H-purin-8-yl]amino}ethanol] | 10 to 20 | 30 to 100 | ≤ 5000 | ≤ 5000 | ≤ 5000
CC(C)Cn1c(N2CCN(C(=O)N(C)C)CC2)nc2c(N3CCOCC3)nc(-c3cnc(N)nc3)nc21 [Example 45, 4-[2-(2-Aminopyrimidin-5-yl)-9-isobutyl-6-morpholin-4-yl-9H-purin-8-yl]-N,N-dimethylpiperazine-1-carboxamide] | 20 to 50 | 30 to 100 | ≤ 5000 | ≤ 5000 | ≤ 5000
Cc1nc(N)ncc1-c1nc(N2CCOCC2)c2nc(N3CC[C@@H](NS(C)(=O)=O)C3)n(CC3CC3)c2n1 [Example 72, N-{(3R)-1-[2-(2-Amino-4-methylpyrimidin-5-yl)-9-(cyclopropylmethyl)-6-morpholin-4-yl-9H-purin-8-yl]pyrrolidin-3-yl}methanesulfonamide] | < 10 | ≥ 500 | ≤ 5000 | ≤ 5000 | ≤ 5000
CNc1ncc(-c2nc(N3CCOCC3)c3nc(N4C[C@@H](C)N[C@@H](C)C4)n(CC4CCOC4)c3n2)cn1 (stereo partly drawn) [Example 18, 5-[8-(cis-3,5-Dimethylpiperazin-1-yl)-6-morpholin-4-yl-9-(tetrahydrofuran-3-ylmethyl)-9H-purin-2-yl]-N-methylpyrimidin-2-amine] | 50 to 100 | 100 to 500 | ≤ 5000 | ≤ 5000 | ≤ 5000

The remaining lines, values ahead:

IC50 [1] [nM] | IC50 [2] [nM] | GI50 [3] [nM] | GI50 [4] [nM] | GI50 [5] [nM] | SMILES
10 to 20 | 100 to 500 | ≤ 5000 | ≤ 5000 | ≤ 5000 | CNc1ncc(-c2nc(N3CCOCC3)c3nc(N4CCN(S(C)(=O)=O)CC4)n(CC4CC4)c3n2)c(C)n1 [Example 43]
10 to 20 | ≥ 500 | ≤ 5000 | ≤ 5000 | ≤ 5000 | Cc1nc(N)ncc1-c1nc(N2CCOCC2)c2nc(NCCN3CCOCC3)n(CC3CC3)c2n1 [Example 22, 2-(2-Amino-4-methylpyrimidin-5-yl)-9-(cyclopropylmethyl)-6-morpholin-4-yl-N-(2-morpholin-4-ylethyl)-9H-purin-8-amine]
< 10 | 30 to 100 | ≤ 5000 | ≤ 5000 | ≤ 5000 | Nc1ncc(-c2nc(N3CCOCC3)c3nc(N4CCC(S(=O)(=O)c5ccccc5)C4)n(CC4CC4)c3n2)cn1 (stereo not drawn) [Example 31, 5-{9-(Cyclopropylmethyl)-6-morpholin-4-yl-8-[3-(phenylsulfonyl)pyrrolidin-1-yl]-9H-purin-2-yl}pyrimidin-2-amine]
20 to 50 | 30 to 100 | ≤ 5000 | ≤ 5000 | ≤ 5000 | Nc1ncc(-c2nc(N3CCOCC3)c3nc(N4CCOCC4)n(CC4CCOC4)c3n2)cn1 (stereo not drawn) [Example 23, 5-[6,8-Dimorpholin-4-yl-9-(tetrahydrofuran-3-ylmethyl)-9H-purin-2-yl]pyrimidin-2-amine]
10 to 20 |  |  |  |  | Cc1nc(N)ncc1-c1nc(N2CCOCC2)c2nc(N3CCC(C(N)=O)CC3)n(CC3CC3)c2n1 [Example 47, 1-[2-(2-Amino-4-methylpyrimidin-5-yl)-9-(cyclopropylmethyl)-6-morpholin-4-yl-9H-purin-8-yl]piperidine-4-carboxamide methanesulfonate]
 | ≥ 500 |  |  |  | Cc1nc(N(C)C)ncc1-c1nc(N2CCOCC2)c2nc(N3CCN(S(C)(=O)=O)CC3)n(CC3CC3)c2n1 [Example 44, 5-{9-(Cyclopropylmethyl)-8-[4-(methylsulfonyl)piperazin-1-yl]-6-morpholin-4-yl-9H-purin-2-yl}-N,N,4-trimethylpyrimidin-2-amine]

Reference: patent US8309546B2, “Morpholinopurine derivatives” (Daiichi Sankyo Company, Limited, priority 2008, dated 2012)
